Laboratory results as given in the NIST ThermoML archive (doi:10.1021/acs.jced.8b00132).
Several values for one entry are separate records, joined by “and”; a condition that tells them apart may be missing. Equal entries are not always repeated. ± gives the expanded uncertainty stated by the source.

O=C(C(F)(F)C(F)(F)F)C(F)(C(F)(F)F)C(F)(F)F [dodecafluoro-2-methylpentan-3-one]
Settings | thermal conductivity
272.59 K, 5172 kPa, Liquid, transient hot wire | 0.06413 ± 0.0013 W/m/K
272.59 K, 11144 kPa, Liquid, transient hot wire | 0.06607 ± 0.0014 W/m/K
272.63 K, 49567 kPa, Liquid, transient hot wire | 0.07698 ± 0.0016 W/m/K
272.63 K, 49576 kPa, Liquid, transient hot wire | 0.07734 ± 0.0016 W/m/K
272.66 K, 412 kPa, Liquid, transient hot wire | 0.06211 ± 0.0013 W/m/K
272.66 K, 419 kPa, Liquid, transient hot wire | 0.06231 ± 0.0013 W/m/K
272.66 K, 59545 kPa, Liquid, transient hot wire | 0.08002 ± 0.0016 W/m/K
272.67 K, 59542 kPa, Liquid, transient hot wire | 0.0797 ± 0.0016 W/m/K
272.71 K, 68218 kPa, Liquid, transient hot wire | 0.08167 ± 0.0017 W/m/K
272.71 K, 68236 kPa, Liquid, transient hot wire | 0.08151 ± 0.0017 W/m/K
273.05 K, 32241 kPa, Liquid, transient hot wire | 0.07208 ± 0.0015 W/m/K
273.05 K, 32245 kPa, Liquid, transient hot wire | 0.0724 ± 0.0015 W/m/K
273.05 K, 40384 kPa, Liquid, transient hot wire | 0.07454 ± 0.0015 W/m/K
273.05 K, 40385 kPa, Liquid, transient hot wire | 0.07459 ± 0.0015 W/m/K
273.05 K, 46114 kPa, Liquid, transient hot wire | 0.07568 ± 0.0016 W/m/K
273.06 K, 24365 kPa, Liquid, transient hot wire | 0.07006 ± 0.0014 W/m/K
273.06 K, 24371 kPa, Liquid, transient hot wire | 0.0701 ± 0.0014 W/m/K
273.07 K, 5155 kPa, Liquid, transient hot wire | 0.06386 ± 0.0013 W/m/K
273.07 K, 46114 kPa, Liquid, transient hot wire | 0.07563 ± 0.0015 W/m/K
273.08 K, 5150 kPa, Liquid, transient hot wire | 0.06384 ± 0.0013 W/m/K
273.1 K, 49569 kPa, Liquid, transient hot wire | 0.07538 ± 0.0015 W/m/K
273.1 K, 49574 kPa, Liquid, transient hot wire | 0.07648 ± 0.0016 W/m/K
273.11 K, 59541 kPa, Liquid, transient hot wire | 0.07959 ± 0.0016 W/m/K
273.12 K, 59533 kPa, Liquid, transient hot wire | 0.07966 ± 0.0016 W/m/K
273.14 K, 68200 kPa, Liquid, transient hot wire | 0.0807 ± 0.0017 W/m/K
273.15 K, 404 kPa, Liquid, transient hot wire | 0.06203 ± 0.0013 W/m/K
273.15 K, 68218 kPa, Liquid, transient hot wire | 0.08063 ± 0.0017 W/m/K
273.16 K, 411 kPa, Liquid, transient hot wire | 0.06212 ± 0.0013 W/m/K
273.17 K, 17550 kPa, Liquid, transient hot wire | 0.06792 ± 0.0014 W/m/K
273.17 K, 17567 kPa, Liquid, transient hot wire | 0.06791 ± 0.0014 W/m/K
273.18 K, 11149 kPa, Liquid, transient hot wire | 0.066 ± 0.0014 W/m/K
273.18 K, 11163 kPa, Liquid, transient hot wire | 0.06608 ± 0.0014 W/m/K
273.61 K, 5151 kPa, Liquid, transient hot wire | 0.06408 ± 0.0013 W/m/K
273.61 K, 5162 kPa, Liquid, transient hot wire | 0.06401 ± 0.0013 W/m/K
273.61 K, 59517 kPa, Liquid, transient hot wire | 0.0783 ± 0.0016 W/m/K
273.62 K, 49564 kPa, Liquid, transient hot wire | 0.07642 ± 0.0016 W/m/K
273.62 K, 49566 kPa, Liquid, transient hot wire | 0.07674 ± 0.0016 W/m/K
273.62 K, 59531 kPa, Liquid, transient hot wire | 0.07779 ± 0.0016 W/m/K
273.65 K, 40387 kPa, Liquid, transient hot wire | 0.07442 ± 0.0015 W/m/K
273.65 K, 40395 kPa, Liquid, transient hot wire | 0.07429 ± 0.0015 W/m/K
273.65 K, 46116 kPa, Liquid, transient hot wire | 0.0758 ± 0.0016 W/m/K
273.65 K, 68183 kPa, Liquid, transient hot wire | 0.08044 ± 0.0016 W/m/K
273.65 K, 68193 kPa, Liquid, transient hot wire | 0.08038 ± 0.0016 W/m/K
273.66 K, 46113 kPa, Liquid, transient hot wire | 0.07572 ± 0.0016 W/m/K
273.67 K, 32245 kPa, Liquid, transient hot wire | 0.07209 ± 0.0015 W/m/K
273.67 K, 32247 kPa, Liquid, transient hot wire | 0.07216 ± 0.0015 W/m/K
273.7 K, 424 kPa, Liquid, transient hot wire | 0.0621 ± 0.0013 W/m/K
273.7 K, 24366 kPa, Liquid, transient hot wire | 0.07016 ± 0.0014 W/m/K
273.7 K, 24370 kPa, Liquid, transient hot wire | 0.07021 ± 0.0014 W/m/K
273.71 K, 432 kPa, Liquid, transient hot wire | 0.06209 ± 0.0013 W/m/K
273.81 K, 17553 kPa, Liquid, transient hot wire | 0.06799 ± 0.0014 W/m/K
273.82 K, 17545 kPa, Liquid, transient hot wire | 0.06795 ± 0.0014 W/m/K
273.85 K, 11147 kPa, Liquid, transient hot wire | 0.06585 ± 0.0014 W/m/K
273.86 K, 11155 kPa, Liquid, transient hot wire | 0.06592 ± 0.0014 W/m/K
274.19 K, 59501 kPa, Liquid, transient hot wire | 0.07896 ± 0.0016 W/m/K
274.2 K, 59504 kPa, Liquid, transient hot wire | 0.07856 ± 0.0016 W/m/K
274.21 K, 49565 kPa, Liquid, transient hot wire | 0.07644 ± 0.0016 W/m/K
274.21 K, 49570 kPa, Liquid, transient hot wire | 0.07662 ± 0.0016 W/m/K
274.22 K, 68163 kPa, Liquid, transient hot wire | 0.08055 ± 0.0016 W/m/K
274.22 K, 68173 kPa, Liquid, transient hot wire | 0.08038 ± 0.0016 W/m/K
274.29 K, 46110 kPa, Liquid, transient hot wire | 0.07571 ± 0.0016 W/m/K
274.3 K, 46107 kPa, Liquid, transient hot wire | 0.07575 ± 0.0016 W/m/K
274.31 K, 40378 kPa, Liquid, transient hot wire | 0.07418 ± 0.0015 W/m/K
274.31 K, 40391 kPa, Liquid, transient hot wire | 0.07426 ± 0.0015 W/m/K
274.35 K, 32242 kPa, Liquid, transient hot wire | 0.0723 ± 0.0015 W/m/K
274.35 K, 32249 kPa, Liquid, transient hot wire | 0.0721 ± 0.0015 W/m/K
274.39 K, 24361 kPa, Liquid, transient hot wire | 0.07 ± 0.0014 W/m/K
274.4 K, 24354 kPa, Liquid, transient hot wire | 0.06999 ± 0.0014 W/m/K
274.53 K, 17544 kPa, Liquid, transient hot wire | 0.068 ± 0.0014 W/m/K
274.54 K, 17533 kPa, Liquid, transient hot wire | 0.06799 ± 0.0014 W/m/K
274.59 K, 11155 kPa, Liquid, transient hot wire | 0.06582 ± 0.0014 W/m/K
274.6 K, 11134 kPa, Liquid, transient hot wire | 0.06585 ± 0.0014 W/m/K
274.82 K, 59491 kPa, Liquid, transient hot wire | 0.07869 ± 0.0016 W/m/K
274.82 K, 59496 kPa, Liquid, transient hot wire | 0.07855 ± 0.0016 W/m/K
274.83 K, 68150 kPa, Liquid, transient hot wire | 0.0803 ± 0.0016 W/m/K
274.83 K, 68153 kPa, Liquid, transient hot wire | 0.08033 ± 0.0016 W/m/K
274.86 K, 49566 kPa, Liquid, transient hot wire | 0.0765 ± 0.0016 W/m/K
274.86 K, 49571 kPa, Liquid, transient hot wire | 0.07653 ± 0.0016 W/m/K
300.59 K, 40 kPa, Gas, hot wire | 0.01173 ± 0.00055 W/m/K
300.6 K, 35 kPa, Gas, hot wire | 0.01177 ± 0.00059 W/m/K
300.6 K, 40 kPa, Gas, hot wire | 0.01173 ± 0.00055 W/m/K
300.61 K, 35 kPa, Gas, hot wire | 0.01163 ± 0.00066 W/m/K
300.62 K, 27 kPa, Gas, hot wire | 0.01161 ± 0.00055 W/m/K and 0.01166 ± 0.00055 W/m/K
300.8 K, 40 kPa, Gas, hot wire | 0.01173 ± 0.00055 W/m/K and 0.01174 ± 0.00055 W/m/K
